Measurements published in patent US6461997B1, “Triazole sulfones having herbicidal activity” (Monsanto Technology LLC, priority 1999, dated 2002).

Key:
[1] = tested on: GALAP (catchweed bedstraw); experiment: Pre-emergence herbicidal activity, cool season; assay type: in vivo, Galium aparine; details: lowest tested rate with 80% or greater inhibition; rates 300, 100, 30, 10 g/ha; about 14 days
Procedure, shortened: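 Seeds sown in sterilised fertilised topsoil received surface-applied compound in 50:50 acetone/water, typically at 300, 100, 30 and 10 g/ha, then greenhouse-grown at 30/21° C (warm-season species) or 18/13° C (cool-season species). Percent inhibition versus untreated plants was scored at about 14 days, giving GR80; an asterisk marks activity short of 80% at the top rate.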

[2] = tested on: CHEAL (common lambsquarters); experiment: Pre-plant incorporated (PPI) herbicidal activity, warm season; assay type: in vivo, Chenopodium album; details: for Percent inhibition CHEAL: PPI application
Procedure, shortened: (§1)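 Seeds were sown on compacted topsoil and covered with soil that had been sprayed with compound in organic solvent and mixed through. Pots got 0.64 cm overhead irrigation, then greenhouse at 30/21 °C (warm-season species) or 18/13 °C (cool-season species) day/night. Percent inhibition versus untreated plants was scored about 14 days after planting.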

ALOMY (blackgrass) = experiment: Pre-emergence herbicidal activity, cool season; assay type: in vivo, Alopecurus myosuroides; details: GR80 = lowest tested rate (300, 100, 30, 10 g/ha) with 80% or greater inhibition; approx. 14 days after treating; 18/13° C.
Procedure, shortened: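 Read-out: GR80, derived from percent growth inhibition relative to untreated plants at roughly 14 days after planting and treatment. Compounds went onto the surface of freshly seeded soil at 10–300 g/ha. Day/night regimes were 30/21 °C for millet and crabgrass, 18/13 °C for blackgrass and buckwheat.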

[3] = tested on: AGSST (creeping bentgrass); experiment: Pre-plant incorporated (PPI) herbicidal activity, cool season; assay type: in vivo, Agrostis stolonifera
Procedure, shortened: as §1

[4] = tested on: PANMI (wild proso millet); experiment: Pre-plant incorporated (PPI) herbicidal activity, warm season; assay type: in vivo, Panicum miliaceum
Procedure, shortened: as §1

AMARE (redroot pigweed) = experiment: as above; assay type: in vivo, Amaranthus retroflexus
Procedure, shortened: as §1

wheat (TRZAW) = experiment: Selectivity test, PPI, cool season crop; assay type: in vivo, Triticum aestivum; details: PPI application
Procedure, shortened: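 Pre-plant incorporated: compound in organic solvent sprayed onto cover soil, mixed and laid over seeds; untreated soil for controls. Greenhouse after treatment: warm season 30/21° C., cool season 18/13° C. day/night. Percent inhibition versus untreated plants scored about 14 days after planting.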

SETFA (giant foxtail) = experiment: Pre-plant incorporated (PPI) herbicidal activity, warm season; assay type: in vivo, Setaria faberi
Procedure, shortened: as §1

SOLNI (black nightshade) = experiment: as above; assay type: in vivo, Solanum nigrum
Procedure, shortened: as §1

ECHCG (barnyardgrass) = experiment: Pre-emergence herbicidal activity, warm season; assay type: in vivo, Echinochloa crus-galli; details: GR80 = lowest tested rate (300, 100, 30, 10 g/ha) with 80% or greater inhibition; approx. 14 days after treating; 30/21° C.
Procedure, shortened: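 GR80 values derive from percent inhibition relative to untreated plants, read roughly 14 days after sowing and pre-emergence soil-surface treatment (compound in 50:50 acetone/water; rates typically 10, 30, 100, 300 g/ha). Warm-season weeds grew at 30/21° C day/night, cool-season ones at 18/13° C; an asterisk marks activity without reaching 80% at the highest rate.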

[5] = pre-plant incorporated, GR80 = lowest tested rate with 80% or greater inhibition, approx. 14 days after treating, 30/21° C.
[6] = pre-plant incorporated, lowest tested rate with 80% or greater inhibition, about 14 days

CCN(CC)C(=O)n1cnc(S(=O)(=O)C(F)(F)SCc2ccccc2)n1 [Example 10]
99%: Percent inhibition PANMI ([4]; PPI application, 300 g/ha)
20%: Percent inhibition TRZAW (wheat (TRZAW); 900 g/ha) | Percent inhibition SOLNI (SOLNI (black nightshade); PPI application, 10 g/ha)
80%: Percent inhibition PANMI ([4]; PPI application, 100 g/ha) | Percent inhibition SETFA (SETFA (giant foxtail); PPI application, 100 g/ha) | Percent inhibition SOLNI (SOLNI (black nightshade); PPI application, 300 g/ha)
40%: Percent inhibition AMARE (AMARE (redroot pigweed); PPI application, 100 g/ha)
10%: Percent inhibition TRZAW (wheat (TRZAW); 300 g/ha)
70%: Percent inhibition AGSST ([3]; weed, PPI application, 30 g/ha)
30%: Percent inhibition CHEAL ([2]; 10 g/ha)
0%: Percent inhibition PANMI ([4]; PPI application, 10 g/ha) | Percent inhibition PANMI ([4]; PPI application, 30 g/ha) | Percent inhibition AMARE (AMARE (redroot pigweed); PPI application, 10 g/ha) | Percent inhibition AMARE (AMARE (redroot pigweed); PPI application, 30 g/ha) | Percent inhibition TRZAW (wheat (TRZAW); 10 g/ha) | Percent inhibition TRZAW (wheat (TRZAW); 30 g/ha) | Percent inhibition TRZAW (wheat (TRZAW); 100 g/ha) | Percent inhibition SETFA (SETFA (giant foxtail); PPI application, 10 g/ha)
90%: Percent inhibition AGSST ([3]; weed, PPI application, 10 g/ha)
[empty]: Pre-emergence activity GR80, GALAP [1]
300 g/ha: Pre-emergence activity (GR80) ALOMY (ALOMY (blackgrass)) | Pre-emergence activity (GR80) ECHCG (ECHCG (barnyardgrass))
60%: Percent inhibition CHEAL ([2]; 30 g/ha) | Percent inhibition CHEAL ([2]; 100 g/ha) | Percent inhibition SETFA (SETFA (giant foxtail); PPI application, 30 g/ha) | Percent inhibition SOLNI (SOLNI (black nightshade); PPI application, 30 g/ha)
100%: Percent inhibition CHEAL ([2]; 300 g/ha) | Percent inhibition CHEAL ([2]; 900 g/ha) | Percent inhibition AGSST ([3]; weed, PPI application, 100 g/ha) | Percent inhibition AGSST ([3]; weed, PPI application, 300 g/ha) | Percent inhibition AGSST ([3]; weed, PPI application, 900 g/ha) | Percent inhibition PANMI ([4]; PPI application, 900 g/ha) | Percent inhibition AMARE (AMARE (redroot pigweed); PPI application, 300 g/ha) | Percent inhibition AMARE (AMARE (redroot pigweed); PPI application, 900 g/ha) | Percent inhibition SETFA (SETFA (giant foxtail); PPI application, 300 g/ha) | Percent inhibition SETFA (SETFA (giant foxtail); PPI application, 900 g/ha) | Percent inhibition SOLNI (SOLNI (black nightshade); PPI application, 100 g/ha) | Percent inhibition SOLNI (SOLNI (black nightshade); PPI application, 900 g/ha)

C=C(C)CC(F)(F)S(=O)(=O)c1ncn(C(=O)N(CC)CC)n1 [Example 18]
300 g/ha: Pre-emergence activity GR80, GALAP [1] | Pre-emergence activity (GR80) ALOMY (ALOMY (blackgrass)) | PPI activity (GR80) AMARE (AMARE (redroot pigweed); [5]) | PPI activity (GR80) SOLNI (SOLNI (black nightshade); [5])
20%: inhibition at 100 g/ha (SOLNI (black nightshade); Solanum nigrum, PPI application, 100 g/ha, read-out: Percent inhibition SOLNI)
90%: inhibition at 30 g/ha (SETFA (giant foxtail); Setaria faberi, PPI application, 30 g/ha, read-out: Percent inhibition SETFA) | inhibition at 100 g/ha (SETFA (giant foxtail); Setaria faberi, PPI application, 100 g/ha, read-out: Percent inhibition SETFA) | inhibition at 900 g/ha (SOLNI (black nightshade); Solanum nigrum, PPI application, 900 g/ha, read-out: Percent inhibition SOLNI)
40%: inhibition at 30 g/ha ([4]; Panicum miliaceum, PPI application, 30 g/ha, read-out: Percent inhibition PANMI)
100 g/ha: PPI activity GR80, PANMI [4, 6] | PPI activity GR80, SETFA (SETFA (giant foxtail); [6]) | Pre-emergence activity (GR80) ECHCG (ECHCG (barnyardgrass))
10 g/ha: PPI activity GR80, AGSST [3, 6]
100%: inhibition at 10 g/ha ([3]; Agrostis stolonifera, weed, PPI application, 10 g/ha, read-out: Percent inhibition AGSST) | inhibition at 100 g/ha ([3]; Agrostis stolonifera, weed, PPI application, 100 g/ha, read-out: Percent inhibition AGSST) | inhibition at 900 g/ha ([3]; Agrostis stolonifera, weed, PPI application, 900 g/ha, read-out: Percent inhibition AGSST) | inhibition at 100 g/ha ([4]; Panicum miliaceum, PPI application, 100 g/ha, read-out: Percent inhibition PANMI) | inhibition at 300 g/ha ([4]; Panicum miliaceum, PPI application, 300 g/ha, read-out: Percent inhibition PANMI) | inhibition at 900 g/ha ([4]; Panicum miliaceum, PPI application, 900 g/ha, read-out: Percent inhibition PANMI) | inhibition at 30 g/ha (AMARE (redroot pigweed); Amaranthus retroflexus, PPI application, 30 g/ha, read-out: Percent inhibition AMARE) | inhibition at 100 g/ha (AMARE (redroot pigweed); Amaranthus retroflexus, PPI application, 100 g/ha, read-out: Percent inhibition AMARE) | inhibition at 300 g/ha (AMARE (redroot pigweed); Amaranthus retroflexus, PPI application, 300 g/ha, read-out: Percent inhibition AMARE) | inhibition at 900 g/ha (AMARE (redroot pigweed); Amaranthus retroflexus, PPI application, 900 g/ha, read-out: Percent inhibition AMARE) | inhibition at 10 g/ha (SETFA (giant foxtail); Setaria faberi, PPI application, 10 g/ha, read-out: Percent inhibition SETFA) | inhibition at 300 g/ha (SETFA (giant foxtail); Setaria faberi, PPI application, 300 g/ha, read-out: Percent inhibition SETFA) | inhibition at 900 g/ha (SETFA (giant foxtail); Setaria faberi, PPI application, 900 g/ha, read-out: Percent inhibition SETFA)
99%: inhibition at 300 g/ha ([3]; Agrostis stolonifera, weed, PPI application, 300 g/ha, read-out: Percent inhibition AGSST) | inhibition at 300 g/ha (SOLNI (black nightshade); Solanum nigrum, PPI application, 300 g/ha, read-out: Percent inhibition SOLNI)
30 g/ha: PPI activity (GR80) CHEAL [2, 5]
30%: inhibition at 10 g/ha (AMARE (redroot pigweed); Amaranthus retroflexus, PPI application, 10 g/ha, read-out: Percent inhibition AMARE) | inhibition at 300 g/ha (wheat (TRZAW); Triticum aestivum, 300 g/ha, read-out: Percent inhibition TRZAW)
0%: inhibition at 10 g/ha ([4]; Panicum miliaceum, PPI application, 10 g/ha, read-out: Percent inhibition PANMI) | inhibition at 10 g/ha (wheat (TRZAW); Triticum aestivum, 10 g/ha, read-out: Percent inhibition TRZAW) | inhibition at 30 g/ha (wheat (TRZAW); Triticum aestivum, 30 g/ha, read-out: Percent inhibition TRZAW) | inhibition at 100 g/ha (wheat (TRZAW); Triticum aestivum, 100 g/ha, read-out: Percent inhibition TRZAW) | inhibition at 10 g/ha (SOLNI (black nightshade); Solanum nigrum, PPI application, 10 g/ha, read-out: Percent inhibition SOLNI) | inhibition at 30 g/ha (SOLNI (black nightshade); Solanum nigrum, PPI application, 30 g/ha, read-out: Percent inhibition SOLNI)
60%: inhibition at 30 g/ha ([3]; Agrostis stolonifera, weed, PPI application, 30 g/ha, read-out: Percent inhibition AGSST) | inhibition at 900 g/ha (wheat (TRZAW); Triticum aestivum, 900 g/ha, read-out: Percent inhibition TRZAW)
